Results from US20050267204A1, “Synergistic gold-containing compositions” (MEDICAL INNOVATIONS LIMITED, priority 1996, published 2005).
“Also recorded” adds a separate entry of the source. Like-named read-outs stand apart in the source and are kept apart here.

Experiments:
[1] = tested on: TPA-induced epidermal hyperplasia; experiment: Inhibition of TPA-induced epidermal hyperplasia (epidermal thickness) on back skin of mice; type: in vivo, BALB/c mice; settings: for Emax: read-out: Emax (% inhibition); for Relative potency: hydrocortisone acetate = 1.0
Method: (§1) The mice were housed in stainless steel cages, 6 mice per cage under normal laboratory conditions (room temperature at about 22° C.) at least 7 days before the experiments for acclimatization. Food and water were allowed ad libitum throughout the experiment period. The backs of the mice were shaved with an electric clipper two days before each treatment and only those mice showing no hair regrowth were used (i.e., the mice in the resting phase of the hair growth cycle were selected). During treatment, the mice were held with their tails and put on top of the cage so that they grasped the cage and rested there. The solutions were applied to an area approximately 2 cm×2 cm on the shaved back of the mice by using a “Pipetman” to apply the solution. If auranofin ointment or ointment base was applied, the amount was standardized by using a microspatula which was crimped at one end, the ointment was then put into the ridge and the excess removed by means of another microspatula and applied sparingly twice a day. After a fixed time, the mice were killed routinely by cervical dislocation between 9 a.m. and 11 a.m. to avoid variations due to circadian rhythms, and an area (1 cm×1 cm) was excised from the centre of the treated area by scalpel and scissors. The rest of the tissues were disposed by combustion. The tissues were then fixed, embedded, sectioned and stained.
Epidermal thickness was determined by image analysis. This image analysis system was a minicomputer (Tracor Northern TN8500) attached to a light microscope (Zeiss Axioplan) and a camcorder (Sony DXC-3000P). Sections were taken from each tissue block and 20 measurements were taken at fixed intervals from each section. The average value for the 20 measurements was obtained and entered as one value for each mouse. The mean and SEM for the six mice in each treatment group were calculated.
(§2) The percent inhibition of drug on TPA-induced skin responses (i.e., epidermal hyperplasia, inflammatory cell infiltration and skin-fold thickness) was calculated by using the following formula: [formula]
(§3) This provides estimates of (a) the potency, (b) the efficacy or maximum effect (Emax) and the slope of the log concentration-response curve by using Hill coefficient (γ). The Hill Equation may be expressed as follows: [formula] where IC50 is the drug concentration producing 50% of the maximal response and Emax refers to the maximal effect produced by the drug and is also termed efficacy. Efficacy is the measurement of the intrinsic ability of a drug to initiate a response once it occupies receptor sites. […] The Hill coefficient (γ) measures the slope of the dose-effect curve which can be markedly influenced by the shape of the curve that describes the binding of the drug to the receptor. For many drugs, y lies between 0.6 and 1.5. […] On the other hand, when γ is less than 1, with a shallow hyperbolic concentration effect relationship, the activity occurs over a wide range of drug levels.
(§4) In the present study, concentration-response curves were obtained for a series of corticosteroids. In these experiments, curve fitting was accomplished using a computer programme called “The Scientist” (MicroMath Scientific Software, Salt Lake City, Utah, USA.) in which the parameters, Emax, IC50 and Hill coefficient (γ) for each steroids were estimated by using non-linear regression and least square fits.
Mice were divided into treatment groups. TPA and corticosteroids were premixed to the concentrations required and applied to the backs of mice immediately. For those steroids not very soluble in acetone (i.e., betamethasone, dexamethasone, hydrocortisone and hydrocortisone acetate), the drugs were dissolved in 100 μL dimethylformamide before further dilution with acetone. The efficacy of corticosteroids in inhibiting epidermal hyperplasia, inflammatory cell infiltration and skin-fold thickness was assessed as described previously. Concentration-response curves were determined after computer-fitting of data.

[2] = tested on: TPA-induced inflammatory cell infiltration into the dermis; experiment: Inhibition of TPA-induced inflammatory cell infiltration into the dermis of mice; type: in vivo, BALB/c mice; settings: for Emax: read-out: Emax (% inhibition); for Relative potency: hydrocortisone acetate = 1.0; for Potency for inhibition of TPA-induced inflammatory cell infiltration (in words): ranking in text
Method: as §1
Infiltration of inflammatory cells was determined by the same image analysis system using the section taken from the block of mouse skin embedded in paraffin wax or Spurr's resin and stained with haematoxylin and eosin or toluidine blue respectively. For each section, 10 fields, unless otherwise stated, were chosen randomly and the cell density per mm^2 of field determined. The average value for the 10 fields was obtained and entered as one value for each mouse. The mean and SEM for the six mice in each treatment group were calculated.
The measurement of the inflammatory cell infiltration included the background values which included other materials in the dermis stained in the same way.
as §2, §3, §4
Mice were divided into treatment groups. TPA and corticosteroids were premixed to the concentrations required and applied to the backs of mice immediately.

[3] = Mus musculus, from Hill equation, concentration that produced 50% of Emax, read-out: IC50 for inhibition of epidermal thickening (M × 10^−4)
[4] = Mus musculus, read from concentration-response curve, concentration that inhibited 50% of the TPA effect, read-out: IC50 for inhibition of epidermal thickening (M × 10^−4)
[5] = Mus musculus, topical, Hill equation fit, means ± SD, steroid premixed with TPA, topical, read-out: IC50 (M × 10^−4)
[6] = Mus musculus, Hill equation fit, means ± SD, steroid premixed with TPA, topical
[7] = Mus musculus, from Hill equation, concentration that produced 50% of Emax, read-out: IC50 for inhibition of inflammatory cell infiltration in the dermis (M × 10^−4)
[8] = Mus musculus, read from concentration-response curve, concentration that inhibited 50% of the TPA effect, read-out: IC50 for inhibition of inflammatory cell infiltration in the dermis (M × 10^−4)
[9] = Hill equation fit, means ± SD, steroid premixed with TPA, topical
[10] = Hill equation fit, means ± SD, steroid premixed with TPA, topical, read-out: IC50 (M × 10^−4)
[11] = Mus musculus, topical, read-out: IC50 (M × 10^−4), Hill equation fit, means ± SD, steroid premixed with TPA, topical

| SMILES | IC50 [1, 3] | IC50 [1, 4] | IC50 [1, 5] | IC50 [2, 7] | IC50 [2, 8] | IC50 [2, 5] | Emax [1, 6] | Relative potency ([1]; from Hill-equation IC50) | Relative potency ([1]; from IC50 read from curve) | Emax [2, 6] | Relative potency ([2]; from Hill-equation IC50) | Relative potency ([2]; from IC50 read from curve) | Potency for inhibition of TPA-induced inflammatory cell infiltration (in words) [2] | Potency for inhibition of TPA-induced epidermal hyperplasia (in words) ([1]; ranking in text) | other results |
| --- | --- | --- | --- | --- | --- | --- | --- | --- | --- | --- | --- | --- | --- | --- | --- |
| CCCCC(=O)O[C@]1(C(=O)CO)[C@@H](C)C[C@H]2[C@@H]3CCC4=CC(=O)C=C[C@]4(C)[C@@]3(F)[C@@H](O)C[C@@]21C [Betamethasone valerate, betamethasone valerate] | 15 µM | 22 µM | 15 ± 2 µM | 29 µM | 65 µM | 29 ± 3 µM | 82.2 ± 2.84% | 244.47 | 318.18 | 73.5 ± 1.76% | 266.66 | 169.23 | strong to very strong anti-inflammatory effect |  | Potency for inhibition of TPA-induced epidermal hyperplasia (in words) [1]: strong to very strong potencies; also recorded: most potent agent |
| C[C@@H]1C[C@H]2[C@@H]3CCC4=CC(=O)C=C[C@]4(C)[C@@]3(F)[C@@H](O)C[C@]2(C)[C@@]1(O)C(=O)CO [Dexamethasone] | 126 µM | 200 µM | 126 ± 44 µM | 444 µM | 410 µM | 444 ± 102 µM | 90.7 ± 5.72% | 29.10 | 35.0 | 99% | 17.42 | 26.83 |  |  |  |
| C[C@@H]1C[C@H]2[C@@H]3C[C@H](F)C4=CC(=O)C=C[C@]4(C)[C@H]3[C@@H](O)C[C@]2(C)[C@H]1C(=O)COC(=O)C(C)(C)C [Fluocortolone 21-pivalate] |  |  |  |  |  |  |  | 91.68 | 116.67 |  | 70.30 | 100.0 | medium to strong potencies | medium to strong potencies | Emax (% inhibition) [1, 9]: 85.18 ± 9.51 % inhibition; IC50 [1, 10]: 40 ± 15 µM; IC50 ([1]; from Hill equation, concentration that produced 50% of Emax, read-out: IC50 for inhibition of epidermal thickening (M × 10^−4)): 40 µM; IC50 ([1]; read from concentration-response curve, concentration that inhibited 50% of the TPA effect, read-out: IC50 for inhibition of epidermal thickening (M × 10^−4)): 60 µM; Emax (% inhibition) [2, 9]: 97.91 ± 12.16 % inhibition; IC50 [2, 10]: 110 ± 40 µM; IC50 ([2]; from Hill equation, concentration that produced 50% of Emax, read-out: IC50 for inhibition of inflammatory cell infiltration in the dermis (M × 10^−4)): 110 µM; IC50 ([2]; read from concentration-response curve, concentration that inhibited 50% of the TPA effect, read-out: IC50 for inhibition of inflammatory cell infiltration in the dermis (M × 10^−4)): 110 µM |
| CCC(=O)OCC(=O)[C@@]1(OC(=O)CC)[C@H](C)C[C@H]2[C@H]3[C@H]([C@@H](O)C[C@@]21C)[C@@]1(C)C=CC(=O)C=C1C[C@H]3Cl [Alclometasone dipropionate] |  |  |  |  |  |  |  | 41.20 | 70.0 |  | 241.66 | 183.33 | medium to strong potencies | medium to strong potencies | IC50 ([1]; Mus musculus, read-out: IC50 for inhibition of epidermal thickening (M × 10^−4), from Hill equation, concentration that produced 50% of Emax): 89 µM; IC50 ([1]; Mus musculus, read-out: IC50 for inhibition of epidermal thickening (M × 10^−4), read from concentration-response curve, concentration that inhibited 50% of the TPA effect): 100 µM; Emax ([1]; Mus musculus, topical): 96.6 ± 7.9%; IC50 [1, 11]: 89 ± 30 µM; IC50 ([2]; Mus musculus, read-out: IC50 for inhibition of inflammatory cell infiltration in the dermis (M × 10^−4), from Hill equation, concentration that produced 50% of Emax): 32 µM; IC50 ([2]; Mus musculus, read-out: IC50 for inhibition of inflammatory cell infiltration in the dermis (M × 10^−4), read from concentration-response curve, concentration that inhibited 50% of the TPA effect): 60 µM; Emax ([2]; Mus musculus, topical): 82.1 ± 5.65%; IC50 [2, 11]: 32 ± 9 µM |
| CC[PH](CC)(CC)[Au][S][C@@H]1O[C@H](COC(C)=O)[C@@H](OC(C)=O)[C@H](OC(C)=O)[C@H]1OC(C)=O [Auranofin, (1-thio-p-D-glucopyranose 2,3,4,6-tetraacetato-S)-(triethylphosphine)-Au(I)] |  |  |  |  |  |  |  |  |  |  |  |  |  |  | Inhibition of TPA-induced epidermal hyperplasia ([1]; auranofin (0.2%) alone, FIG. 1): about 10% |

More lines, main results first:

| IC50 [1, 3] | IC50 [1, 4] | IC50 [1, 5] | IC50 [2, 7] | IC50 [2, 8] | IC50 [2, 5] | SMILES | Emax [1, 6] | Relative potency ([1]; from Hill-equation IC50) | Relative potency ([1]; from IC50 read from curve) | Emax [2, 6] | Relative potency ([2]; from Hill-equation IC50) | Relative potency ([2]; from IC50 read from curve) | Potency for inhibition of TPA-induced inflammatory cell infiltration (in words) [2] | Potency for inhibition of TPA-induced epidermal hyperplasia (in words) ([1]; ranking in text) | other results |
| --- | --- | --- | --- | --- | --- | --- | --- | --- | --- | --- | --- | --- | --- | --- | --- |
| 3670 µM | 7000 µM | 3670 ± 1200 µM | 7730 µM | 11000 µM | 7730 ± 1380 µM | CC(=O)OCC(=O)[C@@]1(O)CC[C@H]2[C@@H]3CCC4=CC(=O)CC[C@]4(C)[C@H]3[C@@H](O)C[C@@]21C [Hydrocortisone acetate, hydrocortisone acetate] | 79.6 ± 7.62% | 1.0 | 1.0 | 79.4% | 1.0 | 1.0 | low to medium potencies | low to medium potencies |  |
| 113 µM | 140 µM | 113 ± 35 µM | 39 µM | 70 µM | 39 ± 3 µM | CC1(C)O[C@@H]2C[C@H]3[C@@H]4CCC5=CC(=O)C=C[C@]5(C)[C@@]4(F)[C@@H](O)C[C@]3(C)[C@]2(C(=O)CO)O1 [Triamcinolone acetonide] | 89.8 ± 6.4% | 32.45 | 50.0 | 77.2 ± 1.26% | 198.28 | 157.14 |  |  |  |
